From US20060233714A1, “Use of a volatile liquid at atmospheric pressure and ambient temperature for the production of pharmaceutical or biological compositions” (priority 2003, published 2006) come the findings set out here.

Series [1] can be described thus: Evaporation time of the liquid brought into contact with living human hands. The conditions noted are these: liquid applied to living human hands/skin; averages; 1 ml or 2 ml. The class given is physicochemical. The method, then:
For an HFE having a vapor pressure at 25° C. and atmospheric pressure of 28,000 Pa (280 mbar), the evaporation time when 1 ml is brought into contact with living human hands was about 4 seconds; for an HFE having a vapor pressure at 25° C. and atmospheric pressure of 14,000 Pa (140 mbar), the evaporation time was 7 seconds; for an HFE having a vapor pressure at 25° C. and atmospheric pressure of 2100 Pa (21 mbar), the evaporation time was about 15 seconds; and for an HFE having a vapor pressure at 25° C. and atmospheric pressure of 69,800 Pa, the evaporation time was about 1 s.
The evaporation times indicated above are averages for 2 ml applied to the skin. They depend in particular on the temperature of the substrate to which they are applied and can vary between individuals, for application to the skin and mucosae, according to the body temperature and room temperature.

Series [2] can be described thus: Vapor pressure at 25° C. and atmospheric pressure.

`COC(F)(F)C(F)(F)C(F)(F)F` [methoxyheptafluoropropane]: in series [1], the “evaporation time on the hands” value is “about 1 s”. Moreover, the “vapor pressure at 25° C. and atmospheric pressure” value in series [2] is 69,800 Pa.
The like results for methoxynonafluorobutane were, in that order, “about 4 s” and 28,000 Pa.
As for ethoxynonafluorobutane, the “evaporation time on the hands” value in series [1] is “about 7 s”.
